The text below walks through data of publication PMC9538324 (Journal of medical virology, 2022).

For experiment [1] the following is noted: human, in vivo; cited from earlier work.
A further experiment has as its system SARS-CoV-2 Beta variant. The experiment in a line: Virucidal assay. Conditions: virus pretreated with 10 μM, compared with untreated and post-treated controls.

Molecules are shown by their SMILES.

Regarding `CCc1nc(C(N)=O)c(Nc2ccc(N3CCC(N4CCN(C)CC4)CC3)c(OC)c2)nc1NC1CCOCC1` [Gilteritinib, gilteritinib], in experiment [1], the clinical outcome was “successful remission”. Also, in the experiment on SARS-CoV-2 Beta variant, the “virucidal effect on virus viability” value was “did not greatly reduce viability”.
